Laboratory results from patent US8466113B2, “4-isopropylphenyl glucitol compounds as SGLT1 inhibitors” (Taisho Pharmaceutical Co., Ltd., priority 2009, dated 2013).

How the values were obtained:
[1] = Kidney concentrations after repeated oral administration for 3 days; type: in vivo, rat; details: 3 mg/kg once a day for 3 days, male Sprague-Dawley rats, 48 hours after final administration
Procedure: (2) Kidney Concentrations of Inventive Compounds After Repeated Oral Administration for 3 Days
SD/IGS rats at 7 weeks of age (male, non-fasting, Charles River Laboratories Japan Inc.) were orally administered once a day for 3 consecutive days with compound 1-2, 5-2, 6-2, 13-2 or 15-2 according to the present invention (3 mg/kg) prepared in a 0.5% aqueous CMC solution. At 48 hours after the final drug administration, the rats were exsanguinated via the postcaval vein under isoflurane anesthesia, and their kidneys were excised after they were confirmed to be euthanized. After the tissue surface was washed with physiological saline, each tissue was measured for its weight and homogenized in 4 volumes of purified water under ice cooling. The drug concentration in each homogenate was determined in the same manner as shown in Test Example 3(1) by LC-MS/MS using compound 11 as an internal standard substance.

[2] = biological target: T1, human SGLT2 (Homo sapiens, UniProt P31639); assay: Inhibition test for sodium-dependent sugar uptake in CHO-K1 cells stably expressing human SGLT2, Method B; type: cell-based; details: uptake 37° C., 60 minutes, read-out: IC50 for hSGLT2 Method B
T1 construct: expressed in transfected cells; host or cells: CHO-K1
T1 sequence (P31639 1-672): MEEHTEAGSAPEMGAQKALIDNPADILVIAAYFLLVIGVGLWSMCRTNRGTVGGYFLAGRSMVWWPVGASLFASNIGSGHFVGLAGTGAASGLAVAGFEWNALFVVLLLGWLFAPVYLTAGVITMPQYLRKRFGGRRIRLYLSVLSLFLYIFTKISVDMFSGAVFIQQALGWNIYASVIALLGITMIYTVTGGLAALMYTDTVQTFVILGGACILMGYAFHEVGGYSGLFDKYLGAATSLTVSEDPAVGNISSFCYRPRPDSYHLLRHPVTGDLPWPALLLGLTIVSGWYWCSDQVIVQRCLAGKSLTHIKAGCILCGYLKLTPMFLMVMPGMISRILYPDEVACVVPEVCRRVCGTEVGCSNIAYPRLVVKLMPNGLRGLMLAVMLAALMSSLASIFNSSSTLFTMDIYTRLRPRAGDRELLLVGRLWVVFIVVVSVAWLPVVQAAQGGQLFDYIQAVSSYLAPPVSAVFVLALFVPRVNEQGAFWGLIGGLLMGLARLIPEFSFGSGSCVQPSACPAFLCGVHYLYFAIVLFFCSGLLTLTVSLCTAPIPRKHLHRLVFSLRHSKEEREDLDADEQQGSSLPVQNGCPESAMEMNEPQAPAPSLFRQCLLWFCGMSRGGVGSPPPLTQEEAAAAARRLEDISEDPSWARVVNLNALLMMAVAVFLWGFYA
Procedure: (2) Creation of CHO-K1 Cells Stably Expressing Human SGLT2
(§1) Method B: A plasmid vector expressing human SGLT2 protein was transfected into CHO-K1 cells using lipofectamine LTX (Invitrogen). The cells were cultured in the presence of 1000 μg/mL geneticin to select resistant strains, followed by screening in the system shown below using sugar uptake capacity as an indicator to obtain SGLT2-expressing cells.
(§2) (3) Inhibition Test for Sodium-Dependent Sugar Uptake in Stably Expressing Cells
(§3) The stably expressing cells prepared above were used in the following test.
(§4) Pretreatment buffer (140 mM choline chloride, 2 mM KCl, 1 mM CaCl2, 1 mM MgCl2, 10 mM HEPES/5 mM Tris, pH 7.4) was added in a volume of 200 μL to the cells stably expressing SGLT1 or 2 mL for Method A and 200 μL for Method B to the cells stably expressing SGLT2, followed by incubation for 20 minutes. The pretreatment buffer was removed and replaced by uptake buffer containing a test compound (1 mM methyl α-D-glucopyranoside (containing [^14C]methyl α-D-glucopyranoside), 140 mM NaCl, 2 mM KCl, 1 mM CaCl2, 1 mM MgCl2, 10 mM HEPES/5 mM Tris, pH 7.4) in a volume of 75 μL for SGLT1 and SGLT2 in Method B or 200 μL for SGLT2 in Method A. Uptake reaction was performed at 37° C. for 30 minutes (SGLT1) or 60 minutes (SGLT2). After the reaction, the cells were washed twice with washing buffer (10 mM methyl α-D-glucopyranoside, 140 mM choline chloride, 2 mM KCl, 1 mM CaCl2, 1 mM MgCl2, 10 mM HEPES/5 mM Tris, pH 7.4) in a volume of 200 μL for SGLT1 and SGLT2 in Method B or 2 mL for SGLT2 in Method A, and then dissolved in a 0.25 M NaOH solution (75 μL for SGLT1 and SGLT2 in Method B or 400 μL for SGLT2 in Method A). A liquid scintillator (Perkin Elmer) was added and mixed well with each sample, followed by measurement of radioactivity using a β-ray analyzer. For the control group, uptake buffer containing no test compound was prepared. Moreover, another uptake buffer containing choline chloride instead of NaCl was also prepared for basal uptake.
(§5) For determination of IC50 values, test compounds prepared at 6 appropriate concentrations were used and their concentrations required for 50% inhibition of the amount of sugar uptake (IC50 values) were calculated relative to the amount of sugar uptake in the control group (100%).

[3] = biological target: T2, human SGLT1 (Homo sapiens, UniProt P13866); assay: Inhibition test for sodium-dependent sugar uptake in CHO-K1 cells stably expressing human SGLT1; type: cell-based; details: [14C]methyl α-D-glucopyranoside uptake, 37° C., 30 minutes, read-out: IC50 for hSGLT1
T2 construct: expressed in transfected cells; host or cells: CHO-K1
T2 sequence (P13866 1-664): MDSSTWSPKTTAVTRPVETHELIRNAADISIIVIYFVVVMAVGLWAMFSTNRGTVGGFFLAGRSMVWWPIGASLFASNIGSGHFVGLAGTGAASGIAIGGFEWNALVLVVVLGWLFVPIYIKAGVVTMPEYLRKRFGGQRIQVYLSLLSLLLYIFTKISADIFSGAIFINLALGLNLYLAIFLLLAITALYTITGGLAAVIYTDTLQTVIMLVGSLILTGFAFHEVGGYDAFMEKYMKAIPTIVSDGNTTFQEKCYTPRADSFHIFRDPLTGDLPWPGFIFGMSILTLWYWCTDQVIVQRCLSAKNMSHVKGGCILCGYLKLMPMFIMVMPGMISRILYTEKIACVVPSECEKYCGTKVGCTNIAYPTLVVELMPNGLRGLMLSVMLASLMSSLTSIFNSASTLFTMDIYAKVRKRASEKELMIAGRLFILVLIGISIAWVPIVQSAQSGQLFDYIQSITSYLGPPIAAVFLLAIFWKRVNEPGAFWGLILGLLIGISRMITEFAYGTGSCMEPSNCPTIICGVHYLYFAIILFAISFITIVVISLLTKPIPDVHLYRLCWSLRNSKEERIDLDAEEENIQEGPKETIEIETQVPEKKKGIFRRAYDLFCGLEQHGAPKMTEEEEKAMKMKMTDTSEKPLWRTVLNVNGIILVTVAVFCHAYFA
Procedure: (1) Creation of CHO-K1 Cells Stably Expressing Human SGLT1
as §1, with “A” for “Method B: A”, “SGLT1” for “SGLT2”, “2000” for “LTX”, “500” for “1000”, “SGLT1-expressing” for “SGLT2-expressing”
as §2, §3, §4, §5

Row | IC50 [2] [nM] | IC50 [3] [nM] | SMILES | Concentration of compounds in kidney after 3 days continuous oral administration, After 2 days [1]
1 | 322 | 54 | COc1cc(C(C)C)c(Cc2ccc(/C=C/C(C)(C)C(=O)NC(C)(C)C(=O)NCC(C)(C)N)cc2C)cc1[C@@H]1O[C@H](CO)[C@@H](O)[C@H](O)[C@H]1O [Example 13-2] | BLQ (BLQ means below lower limit of quantification(5 ng/g))
2 | 74 | 35 | Cc1cc(/C=C/C(C)(C)C(=O)NC(C)(C)C(=O)NCCN(C)C)ccc1Cc1cc([C@@H]2O[C@H](CO)[C@@H](O)[C@H](O)[C@H]2O)c(O)cc1C(C)C [Example 1-2] | BLQ^# (BLQ means below lower limit of quantification(5 ng/g))
3 | 64 | 27 | Cc1cc(/C=C/C(C)(C)C(=O)NC(C)(C)C(=O)NCC(C)(C)N)ccc1Cc1cc([C@@H]2O[C@H](CO)[C@@H](O)[C@H](O)[C@H]2O)c(O)cc1C(C)C [Example 6-2] | BLQ (BLQ means below lower limit of quantification(5 ng/g))
4 | 20 | 29 | COc1cc(C(C)C)c(Cc2ccc(/C=C/C(C)(C)C(=O)NC(C)(C)C(=O)NCCN(C)C)cc2)cc1[C@@H]1O[C@H](CO)[C@@H](O)[C@H](O)[C@H]1O [Example 15-2] | BLQ (BLQ means below lower limit of quantification(5 ng/g))
5 | 30 | 42 | Cc1cc(/C=C/C(C)(C)C(=O)NC(C)(C)C(=O)N2CCC(N(C)C)CC2)ccc1Cc1cc([C@@H]2O[C@H](CO)[C@@H](O)[C@H](O)[C@H]2O)c(O)cc1C(C)C [Example 5-2] | BLQ (BLQ means below lower limit of quantification(5 ng/g))
